The target in the experiment is T1, GK (glucokinase, residues 12-465) (Homo sapiens, UniProt P35557).
T1 construct: I.D. No. 1 corresponds to residues 12-465 of glucokinase; made in house; host or cells: DH10b-T1r E. coli
T1 sequence (P35557 with tags, fused parts or gaps isoform P35557-2): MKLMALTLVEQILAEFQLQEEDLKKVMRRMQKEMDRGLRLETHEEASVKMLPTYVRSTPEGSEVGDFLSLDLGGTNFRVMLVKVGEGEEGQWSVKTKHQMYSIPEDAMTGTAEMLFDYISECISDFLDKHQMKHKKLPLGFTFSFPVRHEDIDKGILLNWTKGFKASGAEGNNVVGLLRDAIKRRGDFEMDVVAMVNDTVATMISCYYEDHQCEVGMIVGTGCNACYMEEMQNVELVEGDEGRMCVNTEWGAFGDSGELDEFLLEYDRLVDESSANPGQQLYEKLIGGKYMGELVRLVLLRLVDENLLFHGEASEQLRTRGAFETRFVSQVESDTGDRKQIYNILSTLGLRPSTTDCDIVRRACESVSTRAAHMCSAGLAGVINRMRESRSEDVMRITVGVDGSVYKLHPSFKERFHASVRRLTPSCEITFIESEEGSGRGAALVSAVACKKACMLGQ
Kind of experiment: enzymatic glucokinase activity assay (ATP consumption, KinaseGlo luminescence). The format is biochemical. To be noted: 5 μM ATP, 5 mM Glucose, reported as bins; for EC50: Kact = concentration that displays 50% of the maximal increase in GK activity, 60 min, room temperature, read-out: pKact. In a few lines:
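E. coli-expressed recombinant GK purified by two anion-exchange steps. Reaction in 25 mM Hepes pH 7.2, 10 mM MgCl2, 1 mM DTT, 5 μM ATP, 5 mM glucose, 2% DMSO, 60 min at room temperature. ATP consumption quantified by KinaseGlo luminescence; pKact and % ACTmax derived by non-linear curve fitting.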

The mark [1] stands for this setting: read-out: % ACTmax, calculated maximal gain in GK enzyme activity at a saturating concentration of the compound.
The mark [2] stands for this setting: calculated maximal gain in GK enzyme activity at a saturating concentration of the compound, read-out: % ACTmax.

Structures are written as SMILES. Read-outs that look alike come from different tables or passages of the source. Some results are limits rather than exact numbers.

For the molecule `O=C(NC1CC1)c1nn(C(CC2CCOCC2)C(=O)Nc2ncc(Cl)s2)cc1Cl` (stereo not drawn) [Compound 8, 4-chloro-1-(1-(5-chlorothiazol-2-ylamino)-1-oxo-3-(tetrahydro-2H-pyran-4-yl)propan-2-yl)-N-cyclopropyl-1H-pyrazole-3-carboxamide], the EC50 lay in the range of 3980 to 12600 nM. Further, the Emax under setting [1] is at most 90%.
Take `NC(=O)c1ccc(NC(=O)C(CC2CCOCC2)n2ncc3c(S(=O)(=O)C4CC4)cc(F)cc32)nc1` (stereo not drawn) [Compound 117, 6-(2-(4-(cycloproypylsulfonyl)-6-fluoro-1H-indazol-1-yl)-3-(tetrahydro-2H-pyran-4-yl)propanamido)nicotinamide]: the EC50 was at most 316 nM. Moreover, under setting [2], the Emax is 106 to 110%.
On the same counts, the results for `COc1ccc2c(cnn2[C@H](CC2CCOCC2)C(=O)Nc2ccn(C)n2)c1S(=O)(=O)C1CC1` [Compound 110, (R)-2-(4-(cyclopropylsulfonyl)-5-methoxy-1H-indazol-1-yl)-N-(1-methyl-1H-pyrazol-3-yl)-3-(tetrahydro-2H-pyran-4-yl)propanamide] are at least 15800 nM and 106 to 110%.
`Nc1cc(S(=O)(=O)C2CC2)c2cnn([C@H](CC3CCOCC3)C(=O)Nc3ncc(F)s3)c2n1` [Compound 111, (R)-2-(6-amino-4-(cyclopropylsulfonyl)-1H-pyrazol[3,4-b]pyridin-1-yl)-N-(5-fluorothiazol-2-yl)-3-(tetrahydro-2H-pyran-4-yl)propanamide]: the EC50 lay within 398 to 1260 nM. Moreover, under setting [1], the Emax was 106 to 110%.
Regarding `Cn1ccc(NC(=O)[C@@H](CC2CCOCC2)n2ncc3c(S(=O)(=O)C4CC4)c(F)ccc32)n1` [Compound 166, (R)-2-(4-(cyclopropylsulfonyl)-5-fluoro-1H-indazol-1-yl)-N-(1-methyl-1H-pyrazol-3-yl)-3-(tetrahydro-2H-pyran-4-yl)propanamide], the EC50 was in the range of 3980 to 12600 nM. The Emax under setting [2] was 90 to 100%.
In the case of `O=C(Nc1cnccn1)C(CC1CCOCC1)n1ncc2c(S(=O)(=O)C3CC3)cc(Cl)cc21` (stereo not drawn) [Compound 102, 2-(6-chloro-4-(cyclopropylsulfonyl)-1H-indazol-1-yl)-N-(pyrazin-2-yl)-3-(tetrahydro-2H-pyran-4-yl)propanamide], the EC50 is 398 to 1260 nM. Further, the Emax under setting [2] is 90 to 100%.
On the same counts, the results for `O=C(Nc1cnccn1)C(CC1CCOCC1)n1ncc2c(S(=O)(=O)C3CC3)c(F)ccc21` (stereo not drawn) [Compound 154, 2-(4-(cyclopropylsulfonyl)-5-fluoro-1H-indazol-1-yl)-N-(pyrazin-2-yl)-3-(tetrahydro-2H-pyran-4-yl)propanamide] are at most 316 nM and 106 to 110%.
`Cn1ccc(NC(=O)C(CC2CCOCC2)n2ncc3c(S(=O)(=O)C4CC4)cc(Cl)cc32)n1` (stereo not drawn) [Compound 101, 2-(6-chloro-4-(cyclopropylsulfonyl)-1H-indazol-1-yl)-N-(1-methyl-1H-pyrazol-3-yl)-3-(tetrahydro-2H-pyran-4-yl)propanamide]: the EC50 was 398 to 1260 nM. Further, under setting [2], the Emax was 90 to 100%.
On the same counts, the results for `O=C(Nc1ncc(F)s1)C(CC1CCOCC1)n1ncc2c(S(=O)(=O)C3CC3)c(F)ccc21` (stereo not drawn) [Compound 149, 2-(4-(cyclopropylsulfonyl)-5-fluoro-1H-indazol-1-yl)-N-(5-fluorothiazol-2-yl)-3-(tetrahydro-2H-pyran-4-yl)propanamide] are at most 316 nM and at least 111%.

The values are drawn from patent US8563730B2, “Pyrazole and fused pyrazole glucokinase activators” (Takeda San Diego, Inc., priority 2008, dated 2013).
